Data taken from publication PMC7413254 (Nature Communications, 2020).

How the values were obtained:
non-expressing oocytes = test: cells; assay type: cell-based, Xenopus laevis
Method in brief: (§1)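 PfCRT-expressing and control oocytes: ND96 pH 5.5 → 1.5 h at 27.5 °C → ice-cold ND96 wash → 10% SDS lysis → scintillation count.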

PfCRT^Dd2 [1] = molecular target: T1, PfCRT^Dd2 (Plasmodium falciparum, UniProt Q9N623, A220S/I356T/K76T/M74I/N326S/N75E/Q271E/R371I); test: [3H]CQ uptake into Xenopus oocytes, cis-inhibition by unlabelled solute; assay type: cell-based; conditions: PfCRTEcu1110 and PfCRTDd2
Method in brief: as §1

PfCRT^Ecu1110 = PfCRT^Ecu1110 (Plasmodium falciparum, UniProt Q9N623, A220S/I356L/K76T/N326D); test: cell-based; assay type: cell-based; conditions: PfCRTEcu1110; mean ± SEM, n = 5; SEM
Method in brief: (§2)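 Transport measured in Xenopus oocytes expressing the transporters, 1.5 h at 27.5 °C in ND96 pH 5.5 unless noted. For trans-stimulation, VF-6 injected in 25 nL ND96 at pH 5.0–7.0 or Na^+-free (choline) buffer; intracellular levels based on ~400 nL oocyte volume. Ten oocytes per treatment, ≥4 experiments.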

PfNT1 = molecular target: T2, PfNT1 (Plasmodium falciparum, UniProt Q8IDM6); test: cell-based; assay type: cell-based; conditions: trans-stimulation, solute 45 mM injected (estimated intracellular)
T2 construct: expressed in transfected cells; host or cells: Xenopus laevis oocytes (stage V-VI), cRNA-injected
Method in brief: as §2

PfCRT^Dd2 [2] = molecular target: T1, PfCRT^Dd2; test: cell-based; assay type: cell-based; conditions: PfCRTDd2; mean ± SEM, n = 5; SEM
Method in brief: as §2

PfCRT^3D7 = PfCRT^3D7 (Plasmodium falciparum, UniProt Q8IBZ9); test: cell-based; assay type: cell-based; conditions: for [3H]CQ transport, PfCRT3D7 (% PfCRT3D7 control): trans-stimulation, solute 45 mM injected (estimated intracellular)
Method in brief: as §2

PfCRT^3D7, sequence (Q8IBZ9 59-398): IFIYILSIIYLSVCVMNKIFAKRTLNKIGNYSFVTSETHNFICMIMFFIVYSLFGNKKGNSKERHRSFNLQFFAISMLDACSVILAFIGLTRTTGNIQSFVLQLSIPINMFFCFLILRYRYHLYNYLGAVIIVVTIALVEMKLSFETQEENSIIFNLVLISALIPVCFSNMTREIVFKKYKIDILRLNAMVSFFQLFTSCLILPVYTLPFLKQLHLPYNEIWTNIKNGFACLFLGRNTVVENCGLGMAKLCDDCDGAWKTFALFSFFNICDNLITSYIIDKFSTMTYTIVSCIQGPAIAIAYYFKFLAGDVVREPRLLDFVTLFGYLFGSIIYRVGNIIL
T2 sequence (Q8IDM6 whole entry): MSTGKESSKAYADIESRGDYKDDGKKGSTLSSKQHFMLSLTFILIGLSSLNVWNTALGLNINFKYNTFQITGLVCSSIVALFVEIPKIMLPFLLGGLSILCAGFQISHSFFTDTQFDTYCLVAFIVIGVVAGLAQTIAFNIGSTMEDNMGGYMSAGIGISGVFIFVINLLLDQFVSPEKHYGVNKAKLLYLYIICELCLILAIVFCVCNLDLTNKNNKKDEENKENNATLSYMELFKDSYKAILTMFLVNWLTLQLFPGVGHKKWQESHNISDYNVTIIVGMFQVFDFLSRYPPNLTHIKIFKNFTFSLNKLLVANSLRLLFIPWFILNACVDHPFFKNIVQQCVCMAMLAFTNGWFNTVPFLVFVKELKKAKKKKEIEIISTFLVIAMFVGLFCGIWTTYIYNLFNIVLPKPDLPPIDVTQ
T1 sequence (Q9N623 whole entry A220S/I356T/K76T/M74I/N326S/N75E/Q271E/R371I): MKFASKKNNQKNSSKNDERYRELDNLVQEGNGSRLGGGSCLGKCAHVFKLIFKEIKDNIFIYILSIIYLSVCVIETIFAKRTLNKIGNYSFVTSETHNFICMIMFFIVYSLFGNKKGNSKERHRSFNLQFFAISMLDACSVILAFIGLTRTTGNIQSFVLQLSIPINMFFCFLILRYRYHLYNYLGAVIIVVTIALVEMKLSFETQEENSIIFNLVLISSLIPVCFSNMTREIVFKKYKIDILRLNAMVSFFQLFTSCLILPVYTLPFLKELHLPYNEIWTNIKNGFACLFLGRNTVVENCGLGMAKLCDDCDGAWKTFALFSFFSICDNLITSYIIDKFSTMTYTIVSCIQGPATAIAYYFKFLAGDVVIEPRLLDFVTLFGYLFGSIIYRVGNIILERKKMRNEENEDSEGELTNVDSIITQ
PfCRT^Ecu1110, sequence (Q9N623 whole entry A220S/I356L/K76T/N326D): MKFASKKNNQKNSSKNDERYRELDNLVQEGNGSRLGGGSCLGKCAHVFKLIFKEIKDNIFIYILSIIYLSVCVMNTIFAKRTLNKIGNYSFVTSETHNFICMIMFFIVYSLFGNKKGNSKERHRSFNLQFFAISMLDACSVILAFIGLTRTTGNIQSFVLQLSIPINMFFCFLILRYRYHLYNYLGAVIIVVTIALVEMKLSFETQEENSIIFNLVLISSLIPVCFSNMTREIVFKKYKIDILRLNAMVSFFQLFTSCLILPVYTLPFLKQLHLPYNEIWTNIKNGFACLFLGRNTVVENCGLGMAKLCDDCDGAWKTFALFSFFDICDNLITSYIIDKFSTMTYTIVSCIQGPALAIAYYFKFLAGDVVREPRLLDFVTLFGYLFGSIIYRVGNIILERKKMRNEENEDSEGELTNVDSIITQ

CCN(CC)CCCC(C)Nc1ccnc2cc(Cl)ccc12 (stereo not shown) [CQ, chloroquine, reference compound]
[3H]CQ transport, non-expressing oocytes (non-expressing oocytes; 0 mM Ca2+, Experiment 1): 3.74 % PfCRTDd2 control | [3H]CQ transport, non-expressing oocytes (non-expressing oocytes; 0 mM Ca2+, Experiment 2): 3.63 % PfCRTDd2 control | [3H]CQ transport, non-expressing oocytes (non-expressing oocytes; 0 mM Ca2+, Experiment 3): 4.25 % PfCRTDd2 control | [3H]CQ transport, non-expressing oocytes (non-expressing oocytes; 0 mM Ca2+, Experiment 4): 3.26 % PfCRTDd2 control | [3H]CQ transport, non-expressing oocytes (non-expressing oocytes; 0 mM Cl-, Experiment 1): 4.15 % PfCRTDd2 control | [3H]CQ transport, non-expressing oocytes (non-expressing oocytes; 0 mM Cl-, Experiment 2): 3.26 % PfCRTDd2 control | [3H]CQ transport, non-expressing oocytes (non-expressing oocytes; 0 mM Cl-, Experiment 3): 3.11 % PfCRTDd2 control | [3H]CQ transport, non-expressing oocytes (non-expressing oocytes; 0 mM Cl-, Experiment 4): 3.85 % PfCRTDd2 control | [3H]CQ transport, non-expressing oocytes (non-expressing oocytes; 0 mM Na+, Experiment 1): 3.84 % PfCRTDd2 control | [3H]CQ transport, non-expressing oocytes (non-expressing oocytes; 0 mM Na+, Experiment 2): 3.27 % PfCRTDd2 control | [3H]CQ transport, non-expressing oocytes (non-expressing oocytes; 0 mM Na+, Experiment 3): 3.36 % PfCRTDd2 control | [3H]CQ transport, non-expressing oocytes (non-expressing oocytes; 0 mM Na+, Experiment 4): 3.51 % PfCRTDd2 control | [3H]CQ transport, non-expressing oocytes (non-expressing oocytes; 1 mM Ca2+, Experiment 1): 3.79 % PfCRTDd2 control | [3H]CQ transport, non-expressing oocytes (non-expressing oocytes; 1 mM Ca2+, Experiment 2): 4.21 % PfCRTDd2 control | [3H]CQ transport, non-expressing oocytes (non-expressing oocytes; 1 mM Ca2+, Experiment 3): 3.27 % PfCRTDd2 control | [3H]CQ transport, non-expressing oocytes (non-expressing oocytes; 1 mM Ca2+, Experiment 4): 3.32 % PfCRTDd2 control | [3H]CQ transport, non-expressing oocytes (non-expressing oocytes; 3 mM Ca2+, Experiment 1): 3.39 % PfCRTDd2 control | [3H]CQ transport, non-expressing oocytes (non-expressing oocytes; 3 mM Ca2+, Experiment 2): 3.63 % PfCRTDd2 control | [3H]CQ transport, non-expressing oocytes (non-expressing oocytes; 3 mM Ca2+, Experiment 3): 3.89 % PfCRTDd2 control | [3H]CQ transport, non-expressing oocytes (non-expressing oocytes; 3 mM Ca2+, Experiment 4): 3.96 % PfCRTDd2 control | [3H]CQ transport, non-expressing oocytes (non-expressing oocytes; 5 mM Ca2+, Experiment 1): 3.68 % PfCRTDd2 control | [3H]CQ transport, non-expressing oocytes (non-expressing oocytes; 5 mM Ca2+, Experiment 2): 3.26 % PfCRTDd2 control | [3H]CQ transport, non-expressing oocytes (non-expressing oocytes; 5 mM Ca2+, Experiment 3): 3.94 % PfCRTDd2 control | [3H]CQ transport, non-expressing oocytes (non-expressing oocytes; 5 mM Ca2+, Experiment 4): 3.67 % PfCRTDd2 control | [3H]CQ transport, non-expressing oocytes (non-expressing oocytes; Control, Experiment 1, Supp Fig. 2b): 3.53 % PfCRTDd2 control | [3H]CQ transport, non-expressing oocytes (non-expressing oocytes; Control, Experiment 1, Supp Fig. 2f): 3.93 % PfCRTDd2 control | [3H]CQ transport, non-expressing oocytes (non-expressing oocytes; Control, Experiment 1, Supp Fig. 2d): 3.52 % PfCRTDd2 control | [3H]CQ transport, non-expressing oocytes (non-expressing oocytes; Control, Experiment 2, Supp Fig. 2b): 3.62 % PfCRTDd2 control | [3H]CQ transport, non-expressing oocytes (non-expressing oocytes; Control, Experiment 2, Supp Fig. 2f): 3.26 % PfCRTDd2 control | [3H]CQ transport, non-expressing oocytes (non-expressing oocytes; Control, Experiment 2, Supp Fig. 2d): 3.16 % PfCRTDd2 control | [3H]CQ transport, non-expressing oocytes (non-expressing oocytes; Control, Experiment 3, Supp Fig. 2b): 3.28 % PfCRTDd2 control | [3H]CQ transport, non-expressing oocytes (non-expressing oocytes; Control, Experiment 3, Supp Fig. 2f): 3.29 % PfCRTDd2 control | [3H]CQ transport, non-expressing oocytes (non-expressing oocytes; Control, Experiment 3, Supp Fig. 2d): 3.75 % PfCRTDd2 control | [3H]CQ transport, non-expressing oocytes (non-expressing oocytes; Control, Experiment 4, Supp Fig. 2b): 3.81 % PfCRTDd2 control | [3H]CQ transport, non-expressing oocytes (non-expressing oocytes; Control, Experiment 4, Supp Fig. 2f): 4.38 % PfCRTDd2 control | [3H]CQ transport, non-expressing oocytes (non-expressing oocytes; Control, Experiment 4, Supp Fig. 2d): 3.21 % PfCRTDd2 control

CC(C)(C)NC(=O)[C@@H]1C[C@@H]2CCCC[C@@H]2CN1C[C@@H](O)[C@H](Cc1ccccc1)NC(=O)[C@H](CC(N)=O)NC(=O)c1ccc2ccccc2n1 [Saquinavir, saquinavir, reference compound]
Cis-inhibition of [3H]CQ transport (in words) (PfCRT^Dd2 [1]): cis-inhibited | App Vmax for the trans-stimulatory effect of the peptide mimic on [3H]CQ transport (PfCRT^Ecu1110): 1.6 ±0.2 pmol/oocyte/h | [3H]CQ transport, PfNT1 (% PfCRTDd2 control) (PfNT1; Experiment 1): 2.62 % PfCRTDd2 control | [3H]CQ transport, PfNT1 (% PfCRTDd2 control) (PfNT1; Experiment 2): 2.47 % PfCRTDd2 control | [3H]CQ transport, PfNT1 (% PfCRTDd2 control) (PfNT1; Experiment 3): 2.54 % PfCRTDd2 control | [3H]CQ transport, PfNT1 (% PfCRTDd2 control) (PfNT1; Experiment 4): 2.32 % PfCRTDd2 control | App Vmax for the trans-stimulatory effect of the peptide mimic on [3H]CQ transport (PfCRT^Dd2 [2]): 0.8 ±0.05 pmol/oocyte/h | App Vmax for the trans-stimulatory effect of the peptide mimic on [3H]CQ transport (PfCRT^3D7; PfCRT3D7, mean ± SEM, n = 5, SEM): 2.2 ±0.5 pmol/oocyte/h | Trans-stimulation of [3H]CQ transport via PfCRT (in words) (PfCRT^3D7; PfCRT isoforms as stated in the sentence): trans-stimulated | [3H]CQ transport, PfCRT3D7 (% PfCRT3D7 control) (PfCRT^3D7; Experiment 1): 157.43 % PfCRT3D7 control | [3H]CQ transport, PfCRT3D7 (% PfCRT3D7 control) (PfCRT^3D7; Experiment 2): 162.15 % PfCRT3D7 control | [3H]CQ transport, PfCRT3D7 (% PfCRT3D7 control) (PfCRT^3D7; Experiment 3): 143.46 % PfCRT3D7 control | [3H]CQ transport, PfCRT3D7 (% PfCRT3D7 control) (PfCRT^3D7; Experiment 4): 158.34 % PfCRT3D7 control
